# Results reported in patent publication US20240425808A1, “A METHOD FOR RAPID GENERATION OF 3D ORGANOTYPIC CELL CLUSTERS” (THE TRUSTEES OF INDIANA UNIVERSITY, priority 2022, published 2024).
# What was measured:
# Format in all cases: cell-based, human
# [1] = test system: tumor cells within RCC derived APCCs; experiment: Tumor cell death within APCCs by time-lapse imaging; conditions: 24-hour time lapse, anti-PD1 5 μg/mL
# Method: To evaluate the preservation of MDSC viability inside APCCs, initial tests were performed with renal cell carcinoma (RCC) primary tumors from patients. For MDSC study, the CD15+ cells were first isolated from dissociated patient tumor cells via magnetic microbeads, which consist of tumor infiltrating neutrophils including immunosuppressive polymorphonuclear myeloid derived suppressor cells (PMN-MDSCs). The CD15+ cells were pre-labelled with DiL membrane dyes (shown as yellow). T cells were isolated via a 1:1 mixture of CD4 and CD8 microbeads and pre-labeled the T cells with DiO membrane dyes. The CD15+, CD4+, CD8+ depleted dissociated tumor cells were labeled with the blue CMAC cell tracker dye. Membrane impermeable cell nucleus staining NucRed dead 647 was added to indicate cell death. The cell death of the CD15+ cells was calculated by analyzing co-localization of Dil labeled MDSCs and NucRed cell death indicator dye over time-lapse imaging (FIG. 2A).
# MDSC-targeting drugs alone and/or in combination with ICIs. […] The tumor cell death over a 24-hour time lapse was observed. […]
# Digested tumor cells were equally divided into 3 tubes. […] Before acoustic assembly, 1 drop of NucRed Dead 647 ReadyProbes (Invitrogen) was added to 1 milliter of cell suspensions and left in medium to visualize cell death over time. […]
# TNF-α = experiment: ELISA analysis of TNF-α in APCC culture supernatants; conditions: n=3
# Method: (§1) The levels of TNF-α and IFN-γ were elevated in the APCCs treated with anti-PD1. […] (FIG. 4B).
# (§2) Cabozantinib (SelleckChem) was added at 10 μM to the APCCs.
# (§3) To perform cytokine analysis on the APCCs and 2D tumor cultures, 50 μL supernatants were pipetted out of the culture vessel and centrifuged at 10,000 g for 10 minutes to remove cell debris. The supernatants were then analyzed by human TNF-α or IFN-γ kits (Tribioscience).
# IFN-γ = experiment: ELISA analysis of IFN-γ in APCC culture supernatants; conditions: n=3
# Method: as §1, §2, §3
# [2] = test system: TNF-α gene expression in CD4/CD8+ T cells; experiment: qRT-PCR of TNF-α expression in CD4/CD8+ T cells isolated from APCCs; conditions: n=3
# Method: as §2
# (§4) For qRT-PCR analysis of the CD15+ cells and CD4/8+ T cells, CD15+ cells or CD4/8+ T cells were pre-labeled by CD15 or CD4-and-CD8 (1:1) magnetic beads for 15 minutes at 4° C. respectively before mixed with other tumor cells for acoustic assembly. The CD15+ cells or CD4/8+ T cells with the labeling beads were then assembled into APCCs. To analyze their gene expression profiles, the APCCs were digested by with cell recovery solution (Corning), and input onto MACS columns (Miltenyi) for positive magnetic separation to isolate pure CD15+ cells or T cells (CD4+ or CD8+). The purified CD15+ cells or CD4/8+ T cells were then lysed for RNA extraction by RNeasy Mini Kit (Qiagen), reverse transcribed to cDNA by High-Capacity cDNA Reverse Transcription Kit (Applied Biosystems), and analyzed using corresponding primer pairs (Table 2) and SYBR Green PCR Master Mix (Applied Biosystems). The samples were run on a StepOne Real Time PCR machine (Applied Biosystems) to quantify signals. The results were analyzed using AACt method for fold change analysis.
# [3] = test system: IFN-γ gene expression in CD4/CD8+ T cells; experiment: qRT-PCR of IFN-γ expression in CD4/CD8+ T cells isolated from APCCs; conditions: n=3
# Method: as §2, §4
# [4] = APCCs without CD15+ cells, 24 hours post-treatment
# [5] = T cells isolated from APCCs 24 hours post-treatment
substance,measurement,setting,value
Pembrolizumab [anti-PD1],increase in tumor cell death as compared to untreated control,"[1]; APCCs from 3 RCC patient primary tumors, Cabozantinib 10 μM",about 17.0%±9.4%
same,"increase in tumor cell death as compared to untreated control, APCCs without CD15+ cells",[1]; APCCs without CD15+ cells (MDSCs removal),about 40.9%±9.4%
same,"TNF-α level in culture supernatant, APCCs without CD15+ cells",TNF-α; APCCs without CD15+ cells,further elevated
same,TNF-α level in culture supernatant,"TNF-α; RCC APCCs, vs control",elevated
same,"IFN-γ level in culture supernatant, APCCs without CD15+ cells",IFN-γ; APCCs without CD15+ cells,further elevated
same,IFN-γ level in culture supernatant,"IFN-γ; RCC APCCs, vs control",elevated
same,"TNF-α gene expression in CD4/CD8+ T cells, APCCs without CD15+ cells",[2]; [4],highest
same,TNF-α gene expression in CD4/CD8+ T cells,[2]; [5],enhanced
same,"IFN-γ gene expression in CD4/CD8+ T cells, APCCs without CD15+ cells",[3]; [4],highest
same,IFN-γ gene expression in CD4/CD8+ T cells,[3]; [5],enhanced
